{"source": "paper PMC3726061", "about": "(Journal of pharmaceutical and biomedical analysis, 2012)", "key": {"σ2 [1]": {"target": "σ2", "settings": "read-out: Ki at σ2 (nM) Literature, cited from earlier work"}, "σ1 [2]": {"target": "σ1", "settings": "read-out: Ki at σ1 (nM) Literature, cited from earlier work"}, "σ2 receptors [3]": {"target": "T1, σ2 receptors (Rattus norvegicus, UniProt Q5U3Y7)", "T1 sequence (Q5U3Y7 1-176)": "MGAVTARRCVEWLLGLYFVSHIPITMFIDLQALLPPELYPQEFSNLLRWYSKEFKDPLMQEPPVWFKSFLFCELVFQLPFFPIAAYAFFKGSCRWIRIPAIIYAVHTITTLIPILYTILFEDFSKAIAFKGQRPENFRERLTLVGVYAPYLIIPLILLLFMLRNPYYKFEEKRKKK", "assay": "σ2 competition binding, [3H]DTG with"}, "σ1 receptors [4]": {"target": "T2, σ1 receptors (Rattus norvegicus, UniProt Q9R0C9)", "T2 sequence (Q9R0C9 whole entry)": "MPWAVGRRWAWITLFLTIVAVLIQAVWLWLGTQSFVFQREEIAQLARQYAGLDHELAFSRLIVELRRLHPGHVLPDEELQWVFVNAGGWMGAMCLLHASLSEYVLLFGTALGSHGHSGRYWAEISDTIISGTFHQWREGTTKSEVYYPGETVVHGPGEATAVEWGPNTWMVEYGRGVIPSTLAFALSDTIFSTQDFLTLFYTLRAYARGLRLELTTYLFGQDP", "settings": "read-out: Ki at σ1 (nM) Experimental Brain/Brandel; rat brain P2, 5 nM [3H](+)-pentazocine, cell harvester"}, "σ1 [5]": {"target": "σ1", "settings": "read-out: Ki at σ1 (nM) Literature, footnote not given, cited from earlier work"}, "σ2 receptors [6]": {"target": "T1, σ2 receptors", "assay": "σ2 competition binding, [3H]DTG with", "remark": "listed apart in the source"}, "σ1 receptors [7]": {"target": "T2, σ1 receptors", "assay": "σ1 competition binding, [3H]"}, "σ1 receptors [8]": {"target": "T2, σ1 receptors", "assay": "biochemical"}, "σ1 [9]": {"target": "σ1", "settings": "cited from earlier work"}, "σ2 [10]": {"target": "σ2", "settings": "read-out: Ki at σ2 (nM) Literature, footnote not given, cited from earlier work"}, "σ2 [11]": {"test_system": "σ2", "settings": "read-out: Ki at σ2 (nM) Literature (reported value is IC50); Guinea-pig brain; ref Chaki, 1994; cited from earlier work"}, "[12]": {"settings": "read-out: Ki at σ2 (nM) Experimental Brain/Brandel, rat brain P2, 3 nM [3H]DTG with 300 nM (+)-pentazocine, cell harvester"}, "[13]": {"settings": "Rat brain P2, 3 nM [3H]DTG with 1 μM dextrallorphan, ref Bowen, 1993"}, "[14]": {"settings": "Rat brain P2 with 5 nM [3H](+)-pentazocine, ref Bowen, 1993"}}, "note": "Structures can show the parent of a compound that is named as a salt. Where two headings read alike, the source gives them in different places.", "data": [{"smiles": "c1ccc(CCN2CCCCC2)cc1", "note": "[AC927, N-phenethylpiperidine oxalate]", "values": [{"measurement": "Ki", "setting": "σ2 [1]; Rat brain P2, 3 nM [3H]DTG with 300 nM (+)-pentazocine, ref Matsumoto, 2008", "value": "138 ± 18", "unit": "nM"}, {"measurement": "Ki", "setting": "σ1 [2]; Rat brain P2 with 3 nM [3H](+)-pentazocine, ref Matsumoto, 2008", "value": "30 ± 2", "unit": "nM"}, {"measurement": "Ki", "setting": "σ2 receptors [3]; [12]", "value": "384 ± 34", "unit": "nM"}, {"measurement": "Ki", "setting": "σ1 receptors [4]", "value": "61.2 ± 5.6", "unit": "nM"}]}, {"smiles": "C[C@@H]1CN(CCCn2c3ccccc3c3ccccc32)C[C@H](C)N1", "note": "[rimcazole, rimcazole dihydrochloride monohydrate]", "values": [{"measurement": "Ki", "setting": "σ1 [5]; ref g", "value": "867 ± 185", "unit": "nM"}, {"measurement": "Ki", "setting": "σ2 receptors [6]", "value": "719 ± 72", "unit": "nM"}, {"measurement": "Ki", "setting": "σ2 receptors [3]", "value": "1570 ± 154", "unit": "nM"}]}, {"smiles": "CC(C)=CCN1CCC2(C)c3cc(O)ccc3CC1C2C", "note": "(single isomer, unassigned; (-)) [(−)-pentazocine]", "values": [{"measurement": "Ki", "setting": "σ2 [1]; [13]", "value": "[…]"}, {"measurement": "Ki", "setting": "σ1 [2]; [14]", "value": "[…]"}, {"measurement": "Ki", "setting": "σ2 receptors [3]; [12]", "value": "[…]"}]}, {"smiles": "CN1CCN(CCc2ccc(Cl)c(Cl)c2)CC1", "note": "[BD1063, 1-[2-(3,4-dichlorophenyl)ethyl]-4-methylpiperazine dihydrochloride]", "values": [{"measurement": "Ki", "setting": "σ1 receptors [7]", "value": "33.4 ± 4.1", "unit": "nM"}, {"measurement": "Ki", "setting": "σ1 receptors [8]", "value": "15 ± 2.1", "unit": "nM"}, {"measurement": "Ki", "setting": "σ1 [9]; read-out: Ki at σ1 (nM) Literature, Guinea-pig brain P2 with 3 nM [3H](+)-pentazocine, ref Matsumoto, 1995", "value": "9.15 ± 1.28", "unit": "nM"}]}, {"smiles": "C=CCN1CCC2(C)c3cc(O)ccc3CC1C2C", "note": "(single isomer, unassigned; (+)) [(+)-SKF10, 047, (+)-N-allylnormetazocine hydrochloride]", "values": [{"measurement": "Ki", "setting": "σ2 [1]; [13]", "value": 33700, "unit": "nM"}, {"measurement": "Ki", "setting": "σ1 [2]; [14]", "value": "28.7 ± 2.8", "unit": "nM"}, {"measurement": "Ki", "setting": "σ1 receptors [4]", "value": "287 ± 36", "unit": "nM"}]}, {"smiles": "CC(C)=CCN1CC[C@]2(C)c3cc(O)ccc3C[C@H]1[C@H]2C", "note": "[(+)-pentazocine, (+)-Pentazocine]", "values": [{"measurement": "Ki", "setting": "σ2 [1]; [13]", "value": "1360 ± 134", "unit": "nM"}, {"measurement": "Ki", "setting": "σ1 [2]; [14]", "value": "[…]"}, {"measurement": "Ki", "setting": "σ2 receptors [6]", "value": "1070 ± 94", "unit": "nM"}, {"measurement": "Ki", "setting": "σ2 receptors [3]", "value": "1410 ± 207", "unit": "nM"}]}, {"smiles": "COCCCC/C(=N\\OCCN)c1ccc(C(F)(F)F)cc1", "note": "[fluvoxamine, fluvoxamine maleate]", "values": [{"measurement": "Ki", "setting": "σ1 [5]; ref e", "value": 36, "unit": "nM"}, {"measurement": "Ki", "setting": "σ2 [10]; ref e", "value": 8440, "unit": "nM"}]}, {"smiles": "COc1ccc2c(c1)[C@]13CCCC[C@@H]1[C@H](C2)N(C)CC3", "note": "[dextromethorphan, dextromethorphan hydrobromide]", "values": [{"measurement": "Ki", "setting": "σ1 receptors [7]", "value": "214 ± 15", "unit": "nM"}, {"measurement": "Ki", "setting": "σ1 receptors [8]", "value": "403 ± 22", "unit": "nM"}, {"measurement": "Ki", "setting": "σ1 [5]; ref g", "value": "652 ± 33", "unit": "nM"}, {"measurement": "Ki", "setting": "σ2 receptors [6]", "value": "> 10000", "unit": "nM"}, {"measurement": "Ki", "setting": "σ2 receptors [3]", "value": "> 10000", "unit": "nM"}]}, {"smiles": "CCCc1ccc2c(c1)sc(=O)n2CCN1CCCCCC1", "note": "[SN56, 3-(2-(azepan-l-yl)ethyl)-6-propylbenzo[d]thiazol-2(3H)-one]", "values": [{"measurement": "Ki", "setting": "σ1 receptors [7]; read-out: Ki (nM) σ1, Table 2, 96-well filtration method, rat liver P2, 5 nM [3H](+)-pentazocine", "value": "1.6 ± 0.1", "unit": "nM"}, {"measurement": "Ki σ2/Ki σ1", "setting": "σ1 receptors [7]; selectivity ratio for σ1 versus σ2, 96-well method", "value": 168}, {"measurement": "Ki", "setting": "σ1 [5]; ref h", "value": 0.56, "unit": "nM"}, {"measurement": "Ki", "setting": "σ2 receptors [3]; [12]", "value": "627 ± 115", "unit": "nM"}, {"measurement": "Ki", "setting": "σ1 receptors [4]", "value": "1.7 ± 0.1", "unit": "nM"}, {"measurement": "Ki", "setting": "σ2 [10]; ref h", "value": "> 1000", "unit": "nM"}]}, {"smiles": "CC(=O)[C@H]1CC[C@H]2[C@@H]3CCC4=CC(=O)CC[C@]4(C)[C@H]3CC[C@]12C", "note": "[progesterone]", "values": [{"measurement": "Ki", "setting": "σ1 receptors [7]", "value": "99.7 ± 3.1", "unit": "nM"}, {"measurement": "Ki", "setting": "σ1 receptors [8]", "value": "234 ± 4.4", "unit": "nM"}, {"measurement": "Ki", "setting": "σ1 [5]; ref f", "value": "338 ± 8", "unit": "nM"}, {"measurement": "Ki", "setting": "σ2 receptors [6]", "value": "> 10000", "unit": "nM"}, {"measurement": "Ki", "setting": "σ2 receptors [3]", "value": "> 10000", "unit": "nM"}]}, {"smiles": "CCCN(CCC)CCc1ccc(OC)c(OCCc2ccccc2)c1", "note": "[NE100, 4-methoxy-3-(2-phenylethoxy)-N,N-dipropylbenzeneethanamine hydrochloride]", "values": [{"measurement": "Ki", "setting": "σ1 receptors [7]", "value": "2 ± 0.5", "unit": "nM"}, {"measurement": "Ki", "setting": "σ1 receptors [8]", "value": "2.8 ± 0.5", "unit": "nM"}, {"measurement": "IC50", "setting": "σ1 [9]; read-out: Ki at σ1 (nM) Literature (reported value is IC50), Guinea-pig brain, ref Chaki, 1994", "value": "1.54 ± 0.26", "unit": "nM"}, {"measurement": "Ki", "setting": "σ2 receptors [6]", "value": "36.2 ± 1.1", "unit": "nM"}, {"measurement": "Ki", "setting": "σ2 receptors [3]", "value": "95.5 ± 1", "unit": "nM"}, {"measurement": "IC50", "setting": "σ2 [11]", "value": "84.6 ± 32.9", "unit": "nM"}]}]}
